Measurements: patent US11318077B2, “Retinaldehyde containing compositions and methods of use” (RODAN & FIELDS, LLC, priority 2017, dated 2022)

Columns and labels:
MelanoDerm tissues = experiment: Cytotoxicity by microscopic observation of MelanoDerm tissues; format: cell-based; settings: 2.2 mM; 2 weeks
Procedure: Tissues were equilibrated at 37° C. for 60 min. and undiluted samples (25 μl) of test materials were applied on top of tissues in duplicates. DMI and kojic acid were applied at 2.5% and 2% (w:v) respectively (dissolved in double distilled water). Tissue culture was pursued in the pigmentation-inducing medium […]-113 for 14 days, with reapplication of test materials and changes of tissue culture media every 2-3 days. Results and Discussion: From the macroscopic documentation of all the MelanoDerm tissues at the end of the experiment, differences of color are clearly visible between the solvent controls and some test materials. Table 34 informs whether cytotoxicity may have played a role in these differences. Table 34 also reports the non-invasive MelanoDerm color measurement performed with portable spectrophotometer. [table]

[1] = test system: Retinoic Acid Response Element (RARE) transcription factor pathway; experiment: Cignal RARE Reporter Assay (firefly luciferase) in HEK293 cells; format: cell-based; settings: 24 h, vs water
Description: Objective: Retinoic Acid Receptor (RAR) controls gene transcription by binding to Retinoid Acid Response Elements (RAREs) in DNA. This process is modulated by all trans retinoic acid (ATRA)—a compound with well-established anti-aging skin benefits. […] Cignal RARE Reporter Assay® is designed to screen for such compounds using cell cultures. The objective of this project was to test 6 compounds (retinoic acid (ATRA), retinol, vitamin A palmitate, retinal, 10% w/w Near-1 in dimethylisosorbide, and 10% w/w retinoid ester in dimethylisosorbide) for the ability to activate RARE in this Cignal RARE Reporter Assay model.
(§1) Materials & Methods: The experiments were performed using HEK293 cells (Sigma, St. Louis, Mo.; cat. #85120602) seeded at 50,000 per well in a 96 well black-wall tissue culture plate. Cells were transfected by mixing Cignal Reporter Assay firefly/renilla luciferase constructs (cat. #CCS-016L; Qiagen) with Attractene Transfection Reagent (Qiagen) in Opti-MEM supplemented with 1% MEM Non-essential amino acid solution without L-glutamine. After medium change test materials were added and their effect on RARE induction was quantified 24 h later with the Dual-Luciferase Reporter Assay System (cat. #E1960; Promega).

[2] = test system: Retinoid X receptor (RXR) transcription factor pathway; experiment: Cignal RXR Reporter Assay (firefly luciferase) in HEK293 cells; format: cell-based; settings: for RXR activation (% control): 24 h, vs water
Description: Objective: Retinoid X receptors (RXRs) are one class of nuclear receptors through which retinoids mediate their biological effects. These receptors function as transcription factors by binding as heterodimers to specific sequences in the promoters of target genes. The protein encoded by this gene is a member of the steroid and thyroid hormone receptor superfamily of transcriptional regulators. One of its ligands is all trans retinoic acid (ATRA)—a compound with well-established anti-aging skin benefits. […] Cignal RXR Reporter Assay® is designed to screen for such compounds (retinoic acid (ATRA), retinal, 10% w/w Near-1 in dimethylisosorbide, and 10% w/w retinoid ester in dimethylisosorbide) using cell cultures. The objective of this project was to test four compounds for the ability to activate RXR in this Cignal RXR Reporter Assay model.
as §1, with “The” for “Materials & Methods: The”, “Cignal RXR” for “Cignal”, “#CCS9044L;” for “#CCS-016L;”, “Lglutamine.” for “L-glutamine.”, “RXR” for “RARE”
RXR is a mixture of an inducible retinoid X receptor—responsive firefly luciferase construct and a constitutively expressing Renilla construct, which acts as an internal control for normalizing transfection efficiencies and monitoring cell viability. Signal quantification was obtained with ThermoFisher Scientific Luminoskan Ascent Microplate Luminometer.

[3] = test system: melanin production in MelanoDerm™ skin substitute; experiment: Melanin-modulatory effect in MelanoDerm skin substitutes (color measurement, melanin extraction); format: cell-based
Procedure: Objective: The objective of this assay was to determine the ability of the test materials (dimethylisosorbide [DMI], retinoic acid [ATRA], 10% w/w NEAR-1 in dimethylisosorbide [NEAR-1], Niacinamide PC [NAD], and Kojic Acid [KA]) and combinations thereof to inhibit melanin production in MelanoDerm™ skin substitute model. The effect of these experimental conditions on the secretion of the proinflammatory cytokine IL-8 was also assessed, as a surrogate for skin irritation potential.
Tissues were equilibrated at 37° C. for 60 min. and undiluted samples (25 μl) of test materials were applied on top of tissues in duplicates. DMI and kojic acid were applied at 2.5% and 2% (w:v) respectively (dissolved in double distilled water). Tissue culture was pursued in the pigmentation-inducing medium EPI-100-NMM-113 for 14 days, with reapplication of test materials and changes of tissue culture media every 2-3 days.
At the end of the experiment, tissue pigmentation was quantified non-invasively with NS800 portable spectrophotometer (3NH Technology Co., Ltd., China). This instrument is a reflectance spectrophotometer that measures reflected light in the visible spectrum (range: 400-700 nm) recording colors in a three-dimensional space known as CIEL*a*b* color space. In this project, the L* value representing the lightness of the color was used for color assessment. For the purpose of this experiment, the range of the L* parameter spanned from 17.8 (black background) to 87.8 (white background).
For melanin quantification, the MelanoDerms were frozen, solubilized in Solvable™ (Perkin Elmer) and melanin was extracted at 95° C. overnight. The colorimetric signals proportional to the concentration of extracted melanin, as well as those proportional to the IL-8 in the tissue-conditioned medium in the ELISA test were quantified with Molecular Devices microplate spectrophotometer MAX190 at 490 nm and 405 nm.

IL-8 = IL-8 in MelanoDerm tissue culture-conditioned medium by ELISA (skin irritation surrogate); format: cell-based, Human; settings: day 14
Procedure: Objective: The objective of this assay was to determine the ability of the test materials (dimethylisosorbide [DMI], retinoic acid [ATRA], 10% w/w NEAR-1 in dimethylisosorbide [NEAR-1], Niacinamide PC [NAD], and Kojic Acid [KA]) and combinations thereof to inhibit melanin production in MelanoDerm™ skin substitute model. The effect of these experimental conditions on the secretion of the proinflammatory cytokine IL-8 was also assessed, as a surrogate for skin irritation potential. Tissue culture-conditioned media were assayed for the presence of IL-8 by indirect ELISA (using Invitrogen IL-8 Human CytoSet, cat. #CHC 1303). For melanin quantification, the MelanoDerms were frozen, solubilized in Solvable™ (Perkin Elmer) and melanin was extracted at 95° C. overnight. The colorimetric signals proportional to the concentration of extracted melanin, as well as those proportional to the IL-8 in the tissue-conditioned medium in the ELISA test were quantified with Molecular Devices microplate spectrophotometer MAX190 at 490 nm and 405 nm.

## CC1=C(/C=C/C(C)=C/C=C/C(C)=C/C(=O)OCCNC(=O)c2cccnc2)C(C)(C)CCC1 [NEAR-1, 2-(nicotinamido)-ethyl retinoate]
MelanoDerm tissues
  Cytotoxicity: Yes
[1]; 1 μM
  RARE-mediated firefly luciferase expression, % control: 461 % control
  RARE-mediated firefly luciferase expression, Fold increase: 4.6
[1]; 5 μM
  RARE-mediated firefly luciferase expression, % control: 652 % control
  RARE-mediated firefly luciferase expression, Fold increase: 6.5
[1]; 10 μM
  RARE-mediated firefly luciferase expression, % control: 586 % control
  RARE-mediated firefly luciferase expression, Fold increase: 5.8
[2]; 1 μM
  RXR activation (% control): 103 % control
[2]; 5 μM
  RXR activation (% control): 112 % control
[2]; 10 μM
  RXR activation (% control): 127 % control
[2]; 10 uM, statistically-significant
  modulatory effect on RXR-mediated gene expression: 1.3 fold
[3]; 833 μM, 2 weeks
  Color measurement (whitening units): 30.0 whitening units
  Raw *L values: 72.8
[3]; 2.2 mM, 2 weeks
  Color measurement (whitening units): 27.4 whitening units
  Melanin Content: 22 µg/mL
  Melanin Content (% control): 26 % control
  Raw *L values: 70.2
[3]; NEAR-1 at 833 μM, Retinaldehyde 833 μM+NAD 835 μM
  Whitening effect (ranking in the retinoid category): best whitening effect at non-cytotoxic concentration
IL-8; 833 μM
  IL-8 (col. Units): 208 col. Units
IL-8; 2.2 mM
  IL-8 (col. Units): 209 col. Units
